From ChEMBL document CHEMBL5512659, “Structure optimizing of flavonoids against both MRSA and VRE” (Eur J Med Chem, 2024)
Converted amounts (≈) assume the structure as drawn. The source made the active and inactive calls. The rule behind the calls is not given here.

Experiments:
[1] = system: Enterococcus faecalis; assay: Antibacterial activity against multidrug resistant Enterococcus faecalis ATCC 51299 infected in cyclophosphamide immunosuppressed mouse model of abdominal infection assessed as eradication of bacterial colonies in liver at 5 mg/kg measured after 60 hrs relative to control; format: functional
[2] = system: Staphylococcus aureus; assay: Antibacterial activity against methicillin resistant Staphylococcus aureus clinical isolate 003; format: functional
[3] = system: Enterococcus faecalis; assay: Antibacterial activity against Enterococcus faecalis clinical isolate 7; format: functional
[4] = system: Enterococcus faecalis; assay: Antibacterial activity against multidrug resistant Enterococcus faecalis ATCC 51299 infected in cyclophosphamide immunosuppressed mouse model of abdominal infection assessed as eradication of bacterial colonies in kidney at 5 mg/kg measured after 60 hrs relative to control; format: functional
[5] = system: Staphylococcus aureus; assay: Antibacterial activity against Staphylococcus aureus clinical isolate 29; format: functional
[6] = system: Enterococcus faecalis; assay: Antibacterial activity against multidrug resistant Enterococcus faecalis ATCC 51299 infected in cyclophosphamide immunosuppressed mouse model of abdominal infection assessed as eradication of bacterial colonies in spleen at 5 mg/kg measured after 60 hrs relative to control; format: functional
[7] = system: Enterococcus faecalis; assay: Antibacterial activity against multidrug resistant Enterococcus faecalis ATCC 51299 infected in cyclophosphamide immunosuppressed mouse model of abdominal infection assessed as eradication of bacterial colonies in ascites at 5 mg/kg measured after 60 hrs relative to control; format: functional
[8] = system: Staphylococcus aureus; assay: Antibacterial activity against methicillin resistant Staphylococcus aureus clinical isolate 011; format: functional
[9] = system: Staphylococcus aureus; assay: Antibiofilm activity in methicillin resistant Staphylococcus aureus clinical isolate 003 by crystal violet staining based analysis; format: functional
[10] = system: Staphylococcus aureus; assay: Antibacterial activity against Staphylococcus aureus clinical isolate 31; format: functional
[11] = system: Enterococcus faecalis; assay: Antibacterial activity against multidrug resistant Enterococcus faecalis ATCC 51299; format: functional
[12] = system: Staphylococcus aureus; assay: Antibacterial activity against methicillin resistant Staphylococcus aureus clinical isolate 031; format: functional
[13] = system: Enterococcus faecalis; assay: Antibacterial activity against multidrug resistant Enterococcus faecalis ATCC 51299 assessed as resistance development by measuring fold increase in MIC measured after 20 passages; format: functional
[14] = system: Enterococcus faecalis; assay: Antibacterial activity against Enterococcus faecalis clinical isolate 13; format: functional
[15] = system: Enterococcus faecalis; assay: Antibiofilm activity in multidrug resistant Enterococcus faecalis ATCC 51299 by crystal violet staining based analysis; format: functional
[16] = Toxicity in Galleria mellonella assessed as survival rate at 10 mg/kg observed after 7 days; format: organism-based; details: in vivo, time 7 day
[17] = system: Staphylococcus aureus; assay: Antibacterial activity against methicillin resistant Staphylococcus aureus clinical isolate 003 infected in cyclophosphamide immunosuppressed mouse model of skin wound infection assessed as reduction in bacterial load in wound at 5 mg/kg administered for 7 days and measured on day 8 (reference value: 1.6 x 10^8 CFU); format: functional; details: time 8 day
[18] = system: Staphylococcus aureus; assay: Antibacterial activity against methicillin resistant Staphylococcus aureus clinical isolate 003 infected in cyclophosphamide immunosuppressed mouse model of skin wound infection assessed as wound healing at 5 mg/kg administered for 7 days and measured on day 8; format: functional, organism-based; details: time 8.0 day

SMILES | Activity [1] | MIC [2] | MIC [3] | Activity [4] | MIC [5] | Activity [6] | Activity [7] | MIC [8] | MBEC [9] | MIC [10] | MIC [11] | MIC [12] | fold change (FC) [13] | MIC [14] | MBEC [15] | survival at 168 h [16] | Activity [17] | Activity [18]
CC1(C)S[C@@H]2[C@H](NC(=O)[C@H](N)c3ccccc3)C(=O)N2[C@H]1C(=O)O [AMPICILLIN] | 90.58% | > 128 µg/mL | 2 µg/mL (≈ 5.72 µM) | 95.99% | 2 µg/mL (≈ 5.72 µM) | 83.11% | 89.18% | > 128 µg/mL | >256 µg/mL | 2 µg/mL (≈ 5.72 µM) | 2 µg/mL (≈ 5.72 µM) | > 128 µg/mL | 16 | 2 µg/mL (≈ 5.72 µM) | >256 µg/mL | – | – | –
CCCCCCc1c(-c2ccc(OCCCCNCC)cc2OCCCCNCC)oc2cc(OC)cc(O)c2c1=O | – | 1 µg/mL (≈ 1.72 µM) | 2 µg/mL (≈ 3.43 µM) | – | 2 µg/mL (≈ 3.43 µM) | – | – | 2 µg/mL (≈ 3.43 µM) | – | 1 µg/mL (≈ 1.72 µM) | 2 µg/mL (≈ 3.43 µM) | 2 µg/mL (≈ 3.43 µM) | – | 1 µg/mL (≈ 1.72 µM) | – | – | – | –
CCCCCCc1c(-c2ccc(OCCCCNCc3ccc(C(F)(F)F)cc3)cc2OCCCCNCc2ccc(C(F)(F)F)cc2)oc2cc(OC)cc(O)c2c1=O | – | 16 µg/mL (≈ 19 µM) | 32 µg/mL (≈ 38 µM) | – | 16 µg/mL (≈ 19 µM) | – | – | 8 µg/mL (≈ 9.49 µM) | – | 8 µg/mL (≈ 9.49 µM) | 16 µg/mL (≈ 19 µM) | 8 µg/mL (≈ 9.49 µM) | – | 8 µg/mL (≈ 9.49 µM) | – | – | – | –
CCCCCCc1c(-c2ccc(O)cc2O)oc2cc(OC)cc(O)c2c1=O | – | 4 µg/mL (≈ 10.4 µM) | 4 µg/mL (≈ 10.4 µM) | – | 4 µg/mL (≈ 10.4 µM) | – | – | 4 µg/mL (≈ 10.4 µM) | – | 4 µg/mL (≈ 10.4 µM) | 8 µg/mL (≈ 20.8 µM) | 4 µg/mL (≈ 10.4 µM) | – | 8 µg/mL (≈ 20.8 µM) | – | – | – | –
CCCCCCc1c(-c2ccc(OCCCCN3CCCC(C)C3)cc2OCCCCN2CCCC(C)C2)oc2cc(OC)cc(O)c2c1=O (stereo not drawn) | – | 1 µg/mL (≈ 1.45 µM) | 2 µg/mL (≈ 2.89 µM) | – | 2 µg/mL (≈ 2.89 µM) | – | – | 2 µg/mL (≈ 2.89 µM) | – | 2 µg/mL (≈ 2.89 µM) | 2 µg/mL (≈ 2.89 µM) | 2 µg/mL (≈ 2.89 µM) | – | 2 µg/mL (≈ 2.89 µM) | – | – | – | –
CN[C@H](CC(C)C)C(=O)N[C@H]1C(=O)N[C@@H](CC(N)=O)C(=O)N[C@H]2C(=O)N[C@H]3C(=O)N[C@H](C(=O)N[C@H](C(=O)O)c4cc(O)cc(O)c4-c4cc3ccc4O)[C@H](O)c3ccc(c(Cl)c3)Oc3cc2cc(c3O[C@@H]2O[C@H](CO)[C@@H](O)[C@H](O)[C@H]2O[C@H]2C[C@](C)(N)[C@H](O)[C@H](C)O2)Oc2ccc(cc2Cl)[C@H]1O [VANCOMYCIN] | – | – | – | – | – | – | – | – | >256 µg/mL | – | > 128 µg/mL | – | – | 2 µg/mL (≈ 1.38 µM) | >256 µg/mL | 80% | 5.1 10^6CFU | Active
CCCCCCc1c(-c2ccc(OCCN(C)C)cc2OCCN(C)C)oc2cc(OC)cc(O)c2c1=O | – | 1 µg/mL (≈ 1.9 µM) | 4 µg/mL (≈ 7.59 µM) | – | 1 µg/mL (≈ 1.9 µM) | – | – | 2 µg/mL (≈ 3.8 µM) | – | 2 µg/mL (≈ 3.8 µM) | 4 µg/mL (≈ 7.59 µM) | 4 µg/mL (≈ 7.59 µM) | – | 2 µg/mL (≈ 3.8 µM) | – | – | – | –
CCCCCCc1c(-c2ccc(OCCCCNC3CCCCC3)cc2OCCCCNC2CCCCC2)oc2cc(OC)cc(O)c2c1=O | – | 1 µg/mL (≈ 1.45 µM) | 1 µg/mL (≈ 1.45 µM) | – | 1 µg/mL (≈ 1.45 µM) | – | – | 2 µg/mL (≈ 2.89 µM) | – | 2 µg/mL (≈ 2.89 µM) | 2 µg/mL (≈ 2.89 µM) | 4 µg/mL (≈ 5.79 µM) | – | 1 µg/mL (≈ 1.45 µM) | – | – | – | –
CCCCCCc1c(-c2ccc(OCCCCNCCC)cc2OCCCCNCCC)oc2cc(OC)cc(O)c2c1=O | – | 2 µg/mL (≈ 3.27 µM) | 2 µg/mL (≈ 3.27 µM) | – | 2 µg/mL (≈ 3.27 µM) | – | – | 2 µg/mL (≈ 3.27 µM) | – | 2 µg/mL (≈ 3.27 µM) | 2 µg/mL (≈ 3.27 µM) | 2 µg/mL (≈ 3.27 µM) | – | 2 µg/mL (≈ 3.27 µM) | – | – | – | –
CCCCCCc1c(-c2ccc(OCCCCNCCCCCCCCN)cc2OCCCCNCCCCCCCCN)oc2cc(OC)cc(O)c2c1=O | – | 0.5 µg/mL (≈ 0.64 µM) | 1 µg/mL (≈ 1.28 µM) | – | 1 µg/mL (≈ 1.28 µM) | – | – | 1 µg/mL (≈ 1.28 µM) | – | 0.5 µg/mL (≈ 0.64 µM) | 1 µg/mL (≈ 1.28 µM) | 1 µg/mL (≈ 1.28 µM) | – | 1 µg/mL (≈ 1.28 µM) | – | – | – | –
CCCCCCc1c(-c2ccc(OCCCCNCCc3ccccc3)cc2OCCCCNCCc2ccccc2)oc2cc(OC)cc(O)c2c1=O | – | 4 µg/mL (≈ 5.44 µM) | 8 µg/mL (≈ 10.9 µM) | – | 8 µg/mL (≈ 10.9 µM) | – | – | 4 µg/mL (≈ 5.44 µM) | – | 4 µg/mL (≈ 5.44 µM) | 4 µg/mL (≈ 5.44 µM) | 4 µg/mL (≈ 5.44 µM) | – | 4 µg/mL (≈ 5.44 µM) | – | – | – | –
CCCCCCc1c(-c2ccc(OCCCCN3CCCCC3)cc2OCCCCN2CCCCC2)oc2cc(OC)cc(O)c2c1=O | – | 2 µg/mL (≈ 3.02 µM) | 2 µg/mL (≈ 3.02 µM) | – | 2 µg/mL (≈ 3.02 µM) | – | – | 1 µg/mL (≈ 1.51 µM) | – | 1 µg/mL (≈ 1.51 µM) | 2 µg/mL (≈ 3.02 µM) | 2 µg/mL (≈ 3.02 µM) | – | 1 µg/mL (≈ 1.51 µM) | – | – | – | –
CCCCCCc1c(-c2ccc(OCCCCN(CCC)CCC)cc2OCCCCN(CCC)CCC)oc2cc(OC)cc(O)c2c1=O | – | 8 µg/mL (≈ 11.5 µM) | 16 µg/mL (≈ 23 µM) | – | 16 µg/mL (≈ 23 µM) | – | – | 8 µg/mL (≈ 11.5 µM) | – | 8 µg/mL (≈ 11.5 µM) | 16 µg/mL (≈ 23 µM) | 16 µg/mL (≈ 23 µM) | – | 16 µg/mL (≈ 23 µM) | – | – | – | –
CCCCCCc1c(-c2ccc(OCCCCNCc3ccc(F)cc3)cc2OCCCCNCc2ccc(F)cc2)oc2cc(OC)cc(O)c2c1=O | – | 16 µg/mL (≈ 21.5 µM) | 32 µg/mL (≈ 43.1 µM) | – | 16 µg/mL (≈ 21.5 µM) | – | – | 16 µg/mL (≈ 21.5 µM) | – | 8 µg/mL (≈ 10.8 µM) | 16 µg/mL (≈ 21.5 µM) | 16 µg/mL (≈ 21.5 µM) | – | 8 µg/mL (≈ 10.8 µM) | – | – | – | –
